Source: patent US20250241884A1, “Pharmaceutical Compositions of D10-Docosahexaenoic Acid or Esters Thereof” (BioJiva LLC, priority 2022, published 2025)
“Also recorded” adds a separate entry of the source. Values belong to the molecule of their own block, whether it stands above or below them.

Columns and labels:
[1] = system: geographic atrophy; experiment: Proposed evaluation of geographic atrophy progression in patients versus placebo (safflower oil); assay type: in vivo, human
Method: Based on the above experiment, the following provides a proposed evaluation in reduction in the rate of macular degeneration progression in a cohort of patients treated with deuterated docosahexaenoic acid ethyl ester, as compared to a cohort of test patients treated with placebo. Specifically, the treated cohort is administered 250 mg/day of deuterated docosahexaenoic acid ethyl ester or 250 mg/day of safflower oil. The patients are maintained on this dosing regimen throughout the clinical study. Periodic measurements of further geographic atrophy development are obtained.
Dosing is continued for 6 or 12, or 18 or 24 months. At that time, the average extent of geographic atrophy progression is measured for each cohort. The efficacy of the treatment protocol is evaluated by comparing the extent of geographic atrophy progression in a treated population against a placebo population. […]

[2] = Predicted steady-state D-DHA substitution and plasma decline without dosing in patients, calculated from Table 2 / FIG. 1; design: species or system human; settings: for D-DHA substitution rate at steady-state (% of total DHA): DHA in human diet 130 mg/day
Description: In contrast to controlled experimental diets, naturally occurring DHA is consumed by patients treated with D-DHA which can dilute the relative percentage of administered D-DHA absorbed with the total DHA pool and its final concentration at steady state in blood and eventually in the target tissue such as retina. The data and standard curves referred to above allow for the determination of retinal steady-state active D-DHA concentrations with reasonable accuracy by calculating the D-DHA/total DHA ratio in plasma and/or red blood cells. Table 4 exemplifies this by using a mean daily dietary intake of about 130 mg of DHA per day (which represents the 90th percentile of the mean usual DHA intake by males >51 years of age in the US.
In each case, the first order kinetics evidence that a dose of 250 mg dose of D-DHA will provide for a steady-state ratio of active D-DHA based on the total DHA concentration present, as set forth in Table 4. Extrapolating backwards from the case in Table 4, a dose of at least 130 mg/day of D-DHA should provide a 1:1 ratio of active D-DHA to DHA. That ratio has been shown above to be therapeutic. And a dose of 250 mg of higher should provide a ratio of 1.9:1 or higher which provides a margin for non-compliance as decribed herein above.
Tables 5, 6, and 7 are based on Table 2 and describe the time it takes for plasma D-DHA levels to fall below 50% or below 20% with 5 different daily doses of D-DHA in (i) patients in the 90th percentile of daily intake consuming up to 130 mg DHA (Table 5), (ii) those in the 95th percentile with a daily intake of up to 180 mg DHA (Table 6), and (iii) an example of a patient consuming more than one meal of oily fish per week with up to 260 mg daily DHA intake.

[3] = system: adult male wild-type C57BL/6J mice; experiment: Protection against geographic atrophy after intravitreal ferric ammonium citrate in mice fed D-DHA; assay type: in vivo; settings: for protection against geographic atrophy: intravitreal ferric ammonium citrate
Description: In this example, two cohorts of adult male wild-type C57BL/6J mice (Jackson Labs) were used. Both cohorts were fed identical feed containing 0.25% or 0.5% D-DHA or matching amounts of DHA as controls. After 4 weeks, the mice were given an intravitreal injection of 1 microliter of 0.5 millimolar ferric ammonium citrate diluted in 0.9% saline (test) or 1 microliter of 0.9% saline (control). Mice were then continued on their respective diets for 4 weeks after injection in order to evaluate whether D-DHA could protect against geographic atrophy which is related to AMD.

[4] = Daily D-DHA Dose 250 mg, Background DHA/Day 130 mg (90th percentile, US males)
[5] = Daily D-DHA Dose 250 mg, Background DHA/Day 180 mg (95th percentile, US males)
[6] = Daily D-DHA Dose 250 mg, Background DHA/Day 260 mg (>1 meal of oily fish per week)
[7] = Daily D-DHA Dose 500 mg, Background DHA/Day 130 mg (90th percentile, US males)
[8] = Daily D-DHA Dose 500 mg, Background DHA/Day 180 mg (95th percentile, US males)
[9] = Daily D-DHA Dose 500 mg, Background DHA/Day 260 mg (>1 meal of oily fish per week)
[10] = Daily D-DHA Dose 750 mg, Background DHA/Day 130 mg (90th percentile, US males)
[11] = Daily D-DHA Dose 750 mg, Background DHA/Day 180 mg (95th percentile, US males)
[12] = Daily D-DHA Dose 750 mg, Background DHA/Day 260 mg (>1 meal of oily fish per week)
[13] = Daily D-DHA Dose 1000 mg, Background DHA/Day 130 mg (90th percentile, US males)
[14] = Daily D-DHA Dose 1000 mg, Background DHA/Day 180 mg (95th percentile, US males)
[15] = Daily D-DHA Dose 1000 mg, Background DHA/Day 260 mg (>1 meal of oily fish per week)
[16] = Daily D-DHA Dose 1250 mg, Background DHA/Day 130 mg (90th percentile, US males)
[17] = Daily D-DHA Dose 1250 mg, Background DHA/Day 180 mg (95th percentile, US males)
[18] = Daily D-DHA Dose 1250 mg, Background DHA/Day 260 mg (>1 meal of oily fish per week)

SMILES: [2H]C([2H])(/C=C\CC)/C=C\C([2H])([2H])/C=C\C([2H])([2H])/C=C\C([2H])([2H])/C=C\C([2H])([2H])/C=C\CCC(=O)OCC [deuterated docosahexaenoic acid ethyl ester]
reduction in the rate of disease progression (geographic atrophy progression) ([1]; cohort of patients, 250 mg/day, 6 or 12 or 18 or 24 months, versus placebo (safflower oil)): statistically significant reduction in the rate of disease progression | percent reduction in geographic atrophy area [(C/B)×100] ([1]; cohort of treated patients versus placebo cohort, 6, 12, 18 or 24 months post start of therapy): positive percent reduction in geographic atrophy area that is statistically significant

D-DHA Substitution Rate [2, 4]: ~66% | D-DHA/DHA Ratio [2, 4]: 1.92 to 1 | Time to reach 20% in Plasma (0.2:1 D-DHA to DHA Ratio) w/o taking oral D-DHA [2, 4]: ≤ 77 days | Time to reach ≤50% in Plasma (1:1 D-DHA to DHA Ratio) w/o taking oral D-DHA [2, 4]: ≤ 22 days | D-DHA Substitution Rate [2, 5]: ~58% | Days to reach ≤50% in Plasma (1:1 D-DHA to DHA Ratio) w/o taking oral D-DHA [2, 5]: ≤ 11 days | Time to reach 20% in Plasma (0.2:1 D-DHA to DHA Ratio) w/o taking oral D-DHA [2, 5]: ≤ 66 days | D-DHA Substitution Rate [2, 6]: ~49% | Time to reach 20% in Plasma (0.2:1 D-DHA to DHA Ratio) w/o taking oral D-DHA [2, 6]: ≤ 29 days | D-DHA Substitution Rate [2, 7]: ~79% | Time to reach 20% in Plasma (0.2:1 D-DHA to DHA Ratio) w/o taking oral D-DHA [2, 7]: ≤ 46 days | Time to reach ≤50% in Plasma (1:1 D-DHA to DHA Ratio) w/o taking oral D-DHA [2, 7]: ≤ 6 days | D-DHA Substitution Rate [2, 8]: ~74% | Days to reach ≤50% in Plasma (1:1 D-DHA to DHA Ratio) w/o taking oral D-DHA [2, 8]: ≤ 35 days | Time to reach 20% in Plasma (0.2:1 D-DHA to DHA Ratio) w/o taking oral D-DHA [2, 8]: ≤ 90 days | D-DHA Substitution Rate [2, 9]: ~66% | Days to reach ≤50% in Plasma (1:1 D-DHA to DHA Ratio) w/o taking oral D-DHA [2, 9]: ≤ 8 days | Time to reach 20% in Plasma (0.2:1 D-DHA to DHA Ratio) w/o taking oral D-DHA [2, 9]: ≤ 63 days | D-DHA Substitution Rate [2, 10]: ~85% | Time to reach 20% in Plasma (0.2:1 D-DHA to DHA Ratio) w/o taking oral D-DHA [2, 10]: ≤ 101 days | Time to reach ≤50% in Plasma (1:1 D-DHA to DHA Ratio) w/o taking oral D-DHA [2, 10]: ≤ 60 days | D-DHA Substitution Rate [2, 11]: ~81% | Days to reach ≤50% in Plasma (1:1 D-DHA to DHA Ratio) w/o taking oral D-DHA [2, 11]: ≤ 49 days | Time to reach 20% in Plasma (0.2:1 D-DHA to DHA Ratio) w/o taking oral D-DHA [2, 11]: ≤ 104 days | D-DHA Substitution Rate [2, 12]: ~74% | Days to reach ≤50% in Plasma (1:1 D-DHA to DHA Ratio) w/o taking oral D-DHA [2, 12]: ≤ 26 days | Time to reach 20% in Plasma (0.2:1 D-DHA to DHA Ratio) w/o taking oral D-DHA [2, 12]: ≤ 81 days | D-DHA Substitution Rate [2, 13]: ~88% | Time to reach 20% in Plasma (0.2:1 D-DHA to DHA Ratio) w/o taking oral D-DHA [2, 13]: ≤ 125 days | Time to reach ≤50% in Plasma (1:1 D-DHA to DHA Ratio) w/o taking oral D-DHA [2, 13]: ≤ 70 days | D-DHA Substitution Rate [2, 14]: ~85% | Days to reach ≤50% in Plasma (1:1 D-DHA to DHA Ratio) w/o taking oral D-DHA [2, 14]: ≤ 59 days | Time to reach 20% in Plasma (0.2:1 D-DHA to DHA Ratio) w/o taking oral D-DHA [2, 14]: ≤ 114 days | D-DHA Substitution Rate [2, 15]: ~79% | Days to reach ≤50% in Plasma (1:1 D-DHA to DHA Ratio) w/o taking oral D-DHA [2, 15]: ≤ 38 days | Time to reach 20% in Plasma (0.2:1 D-DHA to DHA Ratio) w/o taking oral D-DHA [2, 15]: ≤ 93 days | D-DHA Substitution Rate [2, 16]: ~91% | Time to reach 20% in Plasma (0.2:1 D-DHA to DHA Ratio) w/o taking oral D-DHA [2, 16]: ≤ 132 days | Time to reach ≤50% in Plasma (1:1 D-DHA to DHA Ratio) w/o taking oral D-DHA [2, 16]: ≤ 77 days | D-DHA Substitution Rate [2, 17]: ~87% | Days to reach ≤50% in Plasma (1:1 D-DHA to DHA Ratio) w/o taking oral D-DHA [2, 17]: ≤ 67 days | Time to reach 20% in Plasma (0.2:1 D-DHA to DHA Ratio) w/o taking oral D-DHA [2, 17]: ≤ 121 days | D-DHA Substitution Rate [2, 18]: ~83% | Days to reach ≤50% in Plasma (1:1 D-DHA to DHA Ratio) w/o taking oral D-DHA [2, 18]: ≤ 47 days | Time to reach 20% in Plasma (0.2:1 D-DHA to DHA Ratio) w/o taking oral D-DHA [2, 18]: ≤ 102 days | D-DHA substitution rate at steady-state (% of total DHA) ([2]; Fixed daily D-DHA dose 250 mg): 66% | D-DHA substitution rate at steady-state (% of total DHA) ([2]; Fixed daily D-DHA dose 500 mg): 79% | D-DHA substitution rate at steady-state (% of total DHA) ([2]; Fixed daily D-DHA dose 1000 mg): 88% | time to reach steady state concentrations of active D-DHA after start of therapy ([2]; plasma, patient): about 14 days | time to reach steady state concentrations of active D-DHA after start of therapy ([2]; red blood cell, patient): about 45 days | time to reach steady state concentration of active D-DHA after start of therapy ([2]; skeletal muscle tissue, patient): about 11 weeks
SMILES: [2H]C([2H])(/C=C\CC)/C=C\C([2H])([2H])/C=C\C([2H])([2H])/C=C\C([2H])([2H])/C=C\C([2H])([2H])/C=C\CCC(=O)O [D-DHA, D-10-docosahexaenoic acid]
protection against geographic atrophy ([3]; concentration of D-DHA at least 50% of the total DHA in the retina, feed 0.25% or 0.5% D-DHA): fully protected against geographic atrophy | protection against geographic atrophy ([3]; lower concentrations of D-DHA to DHA (below 50% of total DHA in the retina)): protection was achieved but at reduced rates | protection / reduction in lipid peroxidation ([3]; ratio of about 1:4 of D-DHA to DHA): the protection is accorded; also recorded: sufficient to provide for therapeutic reduction in lipid peroxidation | protection / reduction in lipid peroxidation ([3]; ratio of at least about 1:1 D-DHA to DHA): protect is maximal; also recorded: near maximal results are obtained | percent reduction in geographic atrophy [(F/E)×100] ([1]; individual patient treated with 1,000 mg of D-DHA versus placebo cohort, 6, 12, 18 or 24 months): positive percent reduction in geographic atrophy that is statistically significant
